{"source": "paper PMC10258454", "about": "(Nature, 2021)", "key": {"[1]": {"target": "T1, AcbK (Actinoplanes sp. SE50/110, UniProt Q8RMD4)", "assay": "X-ray crystallography, […] Å", "type": "binding", "settings": "ATP site; MnCl2, acarbose present"}, "[2]": {"target": "T1, AcbK", "settings": "2 mM ATP as phosphate donor, MgCl2, pH 8, 37 °C"}, "[3]": {"target": "T2, human salivary amylase (HSA) (Homo sapiens, UniProt P0DUB6)", "T2 sequence (P0DUB6 16-511)": "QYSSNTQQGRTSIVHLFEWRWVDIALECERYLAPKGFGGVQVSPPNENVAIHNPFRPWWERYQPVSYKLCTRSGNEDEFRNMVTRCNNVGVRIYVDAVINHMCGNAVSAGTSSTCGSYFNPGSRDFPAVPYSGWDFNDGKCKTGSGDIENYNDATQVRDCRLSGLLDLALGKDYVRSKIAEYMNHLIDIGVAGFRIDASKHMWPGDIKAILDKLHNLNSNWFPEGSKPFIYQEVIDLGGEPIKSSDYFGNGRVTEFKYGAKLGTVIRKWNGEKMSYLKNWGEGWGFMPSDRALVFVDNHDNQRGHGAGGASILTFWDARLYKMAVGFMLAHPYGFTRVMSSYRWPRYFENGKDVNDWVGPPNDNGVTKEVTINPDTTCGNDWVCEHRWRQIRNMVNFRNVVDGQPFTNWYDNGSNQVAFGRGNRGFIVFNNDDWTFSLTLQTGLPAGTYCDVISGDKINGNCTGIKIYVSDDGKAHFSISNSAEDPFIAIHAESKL", "assay": "colorimetric amylase assay, […] nm", "type": "biochemical", "settings": "30 °C"}, "[4]": {"target": "T3, porcine pancreatic amylase (PPA) (Sus scrofa, UniProt P00690)", "T3 sequence (P00690 16-511)": "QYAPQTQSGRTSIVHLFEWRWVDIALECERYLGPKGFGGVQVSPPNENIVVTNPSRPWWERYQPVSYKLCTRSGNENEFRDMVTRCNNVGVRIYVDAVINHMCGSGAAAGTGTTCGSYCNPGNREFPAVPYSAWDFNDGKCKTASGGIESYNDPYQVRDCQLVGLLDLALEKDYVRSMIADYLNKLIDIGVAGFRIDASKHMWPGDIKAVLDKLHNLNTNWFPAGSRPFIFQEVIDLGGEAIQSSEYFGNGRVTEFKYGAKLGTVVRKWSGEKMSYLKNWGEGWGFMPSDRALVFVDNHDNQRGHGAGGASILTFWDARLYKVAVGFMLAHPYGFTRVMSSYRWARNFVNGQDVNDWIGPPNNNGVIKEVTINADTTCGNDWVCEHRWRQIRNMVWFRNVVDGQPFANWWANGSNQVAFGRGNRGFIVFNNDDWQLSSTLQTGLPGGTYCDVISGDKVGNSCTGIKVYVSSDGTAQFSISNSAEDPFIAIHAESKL", "assay": "colorimetric amylase assay, […] nm", "type": "biochemical", "settings": "30 °C"}, "[5]": {"target": "the molecule itself", "assay": "crystal structure"}}}
{"molecule": "Nc1ncnc2c1ncn2[C@@H]1O[C@H](COP(=O)(O)OP(=O)(O)NP(=O)(O)O)[C@@H](O)[C@H]1O", "note": "[AMP-PNP]", "values": [{"measurement": "X-ray crystallography, 2.4 Å", "setting": "[1]", "value": "crystal structure of AcbK bound to acarbose and a non-hydrolysable ATP analogue, adenylyl-imidodiphosphate (AMP-PNP)"}]}
{"molecule": "Nc1ncnc2c1ncn2[C@@H]1O[C@H](COP(=O)(O)OP(=O)(O)OP(=O)(O)O)[C@@H](O)[C@H]1O", "note": "[ATP]", "values": [{"measurement": "HPLC-MS of acarbose phosphorylation", "setting": "[2]", "value": "we incubated the resulting proteins with ATP and acarbose"}]}
{"molecule": "CC1OC[C@H]2O[C@H](O[C@H]3[C@H](O)[C@@H](O)[C@@H](O[C@H]4[C@H](O)[C@@H](O)[C@@H](O[C@H]5[C@H](O)[C@@H](O)[C@@H](O[C@H]6[C@H](O)[C@@H](O)[C@@H](O[C@H]7[C@H](O)[C@@H](O)[C@@H](O[C@H]8[C@H](O)[C@@H](O)[C@@H](Oc9ccc([N+](=O)[O-])cc9)O[C@@H]8CO)O[C@@H]7CO)O[C@@H]6CO)O[C@@H]5CO)O[C@@H]4CO)O[C@@H]3CO)[C@H](O)[C@@H](O)[C@@H]2O1", "note": "(stereo partly drawn) [ethylidene-pNP-G7]", "values": [{"measurement": "colorimetric amylase assay, 405 nm", "setting": "[3]", "value": "cleavage of an oligosaccharide substrate mimic (ethylidene-pNP-G7)"}, {"measurement": "colorimetric amylase assay, 405 nm", "setting": "[4]", "value": "cleavage of an oligosaccharide substrate mimic (ethylidene-pNP-G7)"}]}
{"molecule": "Mak1 (microbiome-derived acarbose kinase 1) (enzyme) MTQADVLVVGGVGVDHIVRVKSLPLPVVDSMMVPPIVTVVGHTGNGVALGVHALGRASAMADVIGDDAEGRLIQDAYSAAGIPITFVTHISGTRRSVNLVTEEGQRMSLYDPRHPFEFIPDPSLWREGIERSRHVHVSIMNWARYALRDAVAAGRSTSTDLHDWDGVADYHKDFAYGADYVFVSAAALRDESGVVADVFARGRAQFVVVMAGSEGARVWRRSDELPLRISPISIPGRPVVDSNGAGDSFVAAFLCHYLDHGDIFGAARAGAVGGAWACGTLGTHTSFVDVETLERLLAR", "values": [{"measurement": "stoichiometry N", "setting": "[5]", "value": 2}]}
{"molecule": "AcbK (acarbose kinase of Actinoplanes sp. SE50/110) (enzyme, UniProt Q8RMD4 1-299, looked up) MSEHTDVLVLGGAGVDTIAYVPELPLPFQDSYVVAAIEPRAGQTGDNVALGLHTLGLRTMHVDVLGDDPEGDLVRAFHTRHGLPFAALPTAAGTKRAVNLVGPDGRRLSLWDGSREAEEDRYPAALIAAHTAHARHVHVCITPPGQHVFGQLNDLPVTVSTDLHNWDGAYEGFEVYAFNADLVFLSATALTDVAATMRRVIDRGRARLVVATDGAHGGSVLVRGETEVRRYAAVAPEAPVVDSNGAGDAFVSGFLFGHLAGEPLETCLRYGAIAGAYACTIPATRAGAIDRAALLRPAA", "values": [{"measurement": "stoichiometry N", "setting": "[5]", "value": 2}]}
